Results taken from paper PMC10628895, “Conformationally Selective 2-Aminotetralin Ligands Targeting the alpha2A- and alpha2C-Adrenergic Receptors” (ACS Chemical Neuroscience, 2023).
Read-outs that look alike come from different tables or passages of the source.

Experiments:
human wild-type α2CR [1] = molecular target: T1, human wild-type α2CR (Homo sapiens, UniProt P18825); assay: Radioligand binding with [3H]rauwolscine (competition and saturation), membranes of transfected HEK293 cells; set-up: host or cells: mouse connective-tissue cells stably expressing the receptor
T1 sequence (P18825 1-462): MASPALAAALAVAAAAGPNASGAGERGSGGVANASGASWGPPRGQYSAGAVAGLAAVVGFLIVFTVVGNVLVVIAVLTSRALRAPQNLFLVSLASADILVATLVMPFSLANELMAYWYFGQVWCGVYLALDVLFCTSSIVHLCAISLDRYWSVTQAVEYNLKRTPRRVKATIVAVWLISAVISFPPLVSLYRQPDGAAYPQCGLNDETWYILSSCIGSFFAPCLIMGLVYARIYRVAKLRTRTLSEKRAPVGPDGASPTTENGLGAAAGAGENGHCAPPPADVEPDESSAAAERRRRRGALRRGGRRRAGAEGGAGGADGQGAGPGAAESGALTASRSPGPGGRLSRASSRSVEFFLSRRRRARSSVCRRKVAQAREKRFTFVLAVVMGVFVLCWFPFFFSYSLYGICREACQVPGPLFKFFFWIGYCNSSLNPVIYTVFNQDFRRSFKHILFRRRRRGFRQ

human wild-type α2AR [2] = molecular target: T2, human wild-type α2AR (Homo sapiens, UniProt P08913); assay: as above; set-up: host or cells: mouse connective-tissue cells stably expressing the receptor
T2 sequence (P08913 1-465): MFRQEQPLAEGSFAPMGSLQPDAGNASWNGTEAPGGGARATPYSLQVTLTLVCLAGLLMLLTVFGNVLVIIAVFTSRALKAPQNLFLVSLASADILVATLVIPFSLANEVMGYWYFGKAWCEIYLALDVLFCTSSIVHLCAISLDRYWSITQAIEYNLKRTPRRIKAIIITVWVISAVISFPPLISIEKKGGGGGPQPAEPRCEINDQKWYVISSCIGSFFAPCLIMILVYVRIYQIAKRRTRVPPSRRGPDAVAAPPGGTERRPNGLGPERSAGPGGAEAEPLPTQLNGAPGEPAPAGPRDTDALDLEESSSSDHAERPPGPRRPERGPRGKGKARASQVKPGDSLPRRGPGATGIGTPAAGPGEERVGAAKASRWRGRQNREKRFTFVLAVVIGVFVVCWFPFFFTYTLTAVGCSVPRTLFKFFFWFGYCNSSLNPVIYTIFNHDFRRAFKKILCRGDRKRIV

human wild-type α2CR [3] = molecular target: T1, human wild-type α2CR; assay: as above; set-up: host or cells: mouse connective-tissue cells stably expressing the receptor; details: [3H]rauwolscine competition, mean ± SD, read-out: Affinity (Ki ± SD; nM) α2CR
Procedure: Cells were grown in 10-cm plates and allowed to reach log growth phase (equivalent to about 70–90% confluency) before transfection. A transfection cocktail containing 3 mL of Opti-MEM (Gibco, Waltham, MA), 10 μg of cDNA, and 30 μL of linear polyethyleneimine “max” (molecular weight ∼ 40 000 g/mol, Polysciences Inc., Warrington, PA) was added to each plate and then incubated with an additional 3 mL of supplemented MEM for 48 h. Human wild-type α2-adrenergic GPCR clones, encoded in a pcDNA3.1(+) vector, were obtained from the cDNA Resource Center (Bloomsburg, PA). Cells were transiently transfected to express the α2AR or α2CR, and membranes were isolated for use in radioligand binding assays.
Cell membrane isolates were obtained following transfection procedure via a series of three 10-min, 12000g centrifugations homogenized via a tissue grinder. Saturation and competitive radioligand displacement assays conducted in 96-well assay plates were performed using membrane isolates. The bicinchoninic acid (BCA) protein assay (Thermo Scientific) kit was used to quantify protein expression.
Each concentration was assessed in quadruplicate, and each competitive binding assay was performed in at least three distinct replicates. Nonspecific binding was determined using 10 μM clozapine. Data were analyzed using the nonlinear regression function “One-site-Fit Ki” in Prism, wherein the Ki was calculated from the experimentally derived IC50 via the Cheng–Prusoff equation[58] [drawing 1]

human wild-type α2CR [4] = molecular target: T1, human wild-type α2CR; assay: cAMP accumulation, LANCE Ultra cAMP TR-FRET immunoassay, cells stably expressing α2CR; details: for functional activity at the α2CR (in words): cAMP formation
Procedure: (§1) Lofexidine was chosen as the reference ligand due to its ongoing use in in vivo studies evaluating 5-SATs for alleviation of opioid withdrawal symptoms.
(§2) Percent change in cAMP over forskolin-stimulated baseline was determined, and then normalized as a function of the percent change stimulated by lofexidine.
(§3) Receptor-mediated inhibition or stimulation of adenylyl cyclase was measured in cells stably expressing either α2AR or α2CR a LANCE Ultra cAMP assay kit (PerkinElmer, Waltham, MA), a time-resolved fluorescence energy transfer (TR-FRET) immunoassay, in a manner consistent with the manufacturer’s recommendations. Minor modifications were made to optimize conditions. […] Each concentration of ligand was applied in triplicate to the cells. A forskolin concentration of 600 nM was applied to the cells to generate a baseline, with the concentration chosen to accommodate the assay window. Cells were incubated for 30 min at 37 °C (α2AR assays) and for 2 h at room temperature (α2CR assays); time was chosen based on optimization-determined ideal conditions and activation kinetics.[59] Cells were then lysed and incubated with Eu-chelated tracer and Ulight anti-cAMP for 1 h. […] The concentration of cAMP present in each well was interpolated from this curve using the raw fluorescence value.

human wild-type α2AR [5] = molecular target: T2, human wild-type α2AR; assay: cAMP accumulation, LANCE Ultra cAMP TR-FRET immunoassay, cells stably expressing α2AR; details: for functional activity at the α2AR (in words): cAMP formation
Procedure: as §1, §2, §3

rodents = details: cited from earlier work
[6] = system: mouse models of autism spectrum disorder (ASD); set-up: method as in PMID 32566916, PMID 26011730, PMID 36473166; details: orally active; cited from earlier work
[7] = [3H]rauwolscine competition, HEK293 membranes, mean ± SD, read-out: Affinity (Ki ± SD; nM) α2AR
[8] = read-out: Emax α2AR, percent maximum response normalized to lofexidine, mean ± SD, NC = no significant change from forskolin-established baseline signaling

Row | Compound | Ki (human wild-type α2CR [1]) | Ki (human wild-type α2AR [2]) | IC50 (human wild-type α2CR [4]) | functional activity at the α2CR (in words) (human wild-type α2CR [4]) | other results
1 | CN(C)[C@@H]1CCc2c(cccc2-c2cccn2C)C1 [(R)-10] | 310 ± 39 nM | 130 ± 33 nM | – | – | –
2 | CCCN(CCC)[C@@H]1CCc2c(cccc2-c2ccccc2Cl)C1 [(R)-6] | 340 ± 95 nM | 94 ± 26 nM | – | – | –
3 | CN(C)[C@@H]1CCc2c(cccc2-c2ccco2)C1 [(R)-8] | 460 ± 72 nM | 1300 ± 330 nM | – | – | –
4 | Fc1ccccc1-c1cccc2c1CC[C@@H](N1CCCC1)C2 [(R)-4, (R)-1-(5-(2-Fluorophenyl)-1,2,3,4-tetrahydronaphthalen-2-yl)pyrrolidine] | – | – | – | – | Ki (human wild-type α2AR [2]; [7]): 1000 ± 170 nM; Ki (human wild-type α2CR [3]): 1500 ± 270 nM
5 | Fc1ccccc1-c1cccc2c1CC[C@H](N1CCCC1)C2 [(S)-4, (S)-1-(5-(2-Fluorophenyl)-1,2,3,4-tetrahydronaphthalen-2-yl)pyrrolidine] | – | – | 48 ± 1.8 nM | inverse agonists | fold higher potency than 5-PAT at the α2CR (human wild-type α2CR [4]; inverse agonist potency): about 9 fold; fold higher potency than CPT at the α2CR (human wild-type α2CR [4]; inverse agonist potency): ~3 fold; fold higher potency than FPT at the α2CR (human wild-type α2CR [4]; inverse agonist potency): about 2 fold; EC50 (human wild-type α2AR [5]): 1.1 ± 0.16 nM; Emax (human wild-type α2AR [5]; read-out: Emax α2AR): 46 ± 3%; Ki (human wild-type α2AR [2]; [7]): 5.7 ± 1.4 nM; Ki (human wild-type α2CR [3]): 5.2 ± 0.3 nM
6 | CN(C)[C@@H]1CCc2c(cccc2-c2ccccc2)C1 [(R)-1] | 500 ± 75 nM | 320 ± 40 nM | – | – | –
7 | CN(C)[C@@H]1CCc2c(cccc2-c2ccccc2Cl)C1 [(R)-3] | 500 ± 86 nM | 490 ± 65 nM | – | – | –
8 | CCCN(CCC)[C@@H]1CCc2c(cccc2-c2ccccc2)C1 [(R)-5] | 580 ± 54 nM | 190 ± 30 nM | – | – | –
9 | CN(C)[C@H]1CCc2c(cccc2-c2ccccc2F)C1 [(S)-2, (2S)-5-(2′-fluorophenyl)-N,N-dimethyl-1,2,3,4-tetrahydronaphthalen-2-amine] | 19 ± 4.6 nM | 3.5 ± 0.97 nM | 79 ± 1.7 nM | inverse agonists | effect on locomotor activity (in words) (rodents): did not impact locomotor activity; EC50 (human wild-type α2AR [5]): 0.55 ± 0.15 nM; Emax (human wild-type α2AR [5]; [8]): 45 ± 1.9%; effect in mouse models of autism spectrum disorder (in words) [6]: improves repetitive behaviors, social behaviors, anxiety behaviors, and ameliorates seizures
10 | CN(C)[C@H]1CCc2c(cccc2-c2cccn2C)C1 [(S)-10] | 50 ± 4.1 nM | 12 ± 0.41 nM | 92 ± 5.9 nM | – | IC50 (human wild-type α2AR [5]): 11 ± 0.26 nM; functional activity at the α2AR (in words) (human wild-type α2AR [5]): inverse agonist; fold higher affinity compared to the FAT compound at α2AR (human wild-type α2AR [2]): 5–10 fold
11 | CC(Oc1c(Cl)cccc1Cl)C1=NCCN1 (centres unmarked) [Lofexidine, reference compound] | – | – | – | agonist | EC50 (human wild-type α2CR [4]): 4.9 ± 1.2 nM; Emax (human wild-type α2CR [4]; read-out: Emax α2CR): 100 ± 3.4%; Ki (human wild-type α2CR [3]): 22 ± 4.6 nM
12 | CN(C)[C@H]1CCc2c(cccc2-c2ccccc2Cl)C1 [(S)-3] | 17 ± 4.1 nM | 5.1 ± 0.52 nM | 130 ± 2.4 nM | inverse agonists | EC50 (human wild-type α2AR [5]): 1.3 ± 0.18 nM; Emax (human wild-type α2AR [5]; [8]): 47 ± 2.9%
13 | CN(C)[C@H]1CCc2c(cccc2-c2cccc3ccccc23)C1 [(S)-7] | 180 ± 38 nM | 27 ± 6.3 nM | 260 ± 44 nM | inverse agonism | fold less efficacious than the other 5-SATs at the α2CR (human wild-type α2CR [4]; inverse agonist efficacy): roughly 2 fold; EC50 (human wild-type α2AR [5]): 82 ± 8.3 nM; fold less potent than FPT at the α2AR (human wild-type α2AR [5]; agonist potency): 150 fold; functional activity at the α2AR (in words) (human wild-type α2AR [5]): agonist activity; Emax (human wild-type α2AR [5]; [8]): 14 ± 4.3%
14 | CN(C)[C@H]1CCc2c(cccc2-c2ccco2)C1 [(S)-8] | 150 ± 3.5 nM | 59 ± 1.4 nM | – | – | –
15 | CCCN(CCC)[C@H]1CCc2c(cccc2-c2ccccc2Cl)C1 [(S)-6] | 280 ± 20 nM | 67 ± 11 nM | – | – | –
16 | CCCN(CCC)[C@H]1CCc2c(cccc2-c2ccccc2)C1 [(S)-5] | 370 ± 14 nM | 180 ± 19 nM | – | – | –
17 | CN(C)[C@H]1CCc2c(cccc2-c2ccccc2)C1 [(S)-1] | 35 ± 4.6 nM | 6.9 ± 1.8 nM | 370 ± 1.9 nM | inverse agonism | EC50 (human wild-type α2AR [5]): 1.4 ± 0.23 nM; functional activity at the α2AR (in words) (human wild-type α2AR [5]): agonist activity; Emax α2AR (human wild-type α2AR [5]; percent maximum response normalized to lofexidine, mean ± SD, NC = no significant change from forskolin-established baseline signaling, listed as 1 (5-PAT)): 24 ± 4.0%; Emax (human wild-type α2AR [5]; [8]): ~25%
18 | CN(C)[C@@H]1CCc2c(cccc2-c2ccccc2F)C1 [(R)-2, (R)-5-(2-Fluorophenyl)-N,N-dimethyl-1,2,3,4-tetrahydronaphthalen-2-amine] | 680 ± 120 nM | 2500 ± 810 nM | – | – | –
19 | CN(C)[C@H]1CCc2c(cccc2-c2cccs2)C1 [(S)-9] | 48 ± 0.57 nM | 6.2 ± 1.5 nM | – | neutral antagonist | functional activity at the α2AR (in words) (human wild-type α2AR [5]): no significant change over baseline; fold higher affinity compared to the FAT compound at α2AR (human wild-type α2AR [2]): 5–10 fold
